Test results: ChEMBL document CHEMBL5055685, “Discovery of the First Potent IDO1/IDO2 Dual Inhibitors: A Promising Strategy for Cancer Immunotherapy” (J Med Chem, 2021)
The source made the active and inactive calls. The calls are words filed in the database; no cut-off is given here.

Tests used:
[1] = biological target: T1, Indoleamine 2,3-dioxygenase 1 (Homo sapiens, UniProt P14902); experiment: Inhibition of IDO1 in IFNgamma-stimulated human HeLa cells assessed as reduction in kynurenine formation measured after 48 hrs by spectrophotometry
Target sequence in this assay (P14902 whole entry): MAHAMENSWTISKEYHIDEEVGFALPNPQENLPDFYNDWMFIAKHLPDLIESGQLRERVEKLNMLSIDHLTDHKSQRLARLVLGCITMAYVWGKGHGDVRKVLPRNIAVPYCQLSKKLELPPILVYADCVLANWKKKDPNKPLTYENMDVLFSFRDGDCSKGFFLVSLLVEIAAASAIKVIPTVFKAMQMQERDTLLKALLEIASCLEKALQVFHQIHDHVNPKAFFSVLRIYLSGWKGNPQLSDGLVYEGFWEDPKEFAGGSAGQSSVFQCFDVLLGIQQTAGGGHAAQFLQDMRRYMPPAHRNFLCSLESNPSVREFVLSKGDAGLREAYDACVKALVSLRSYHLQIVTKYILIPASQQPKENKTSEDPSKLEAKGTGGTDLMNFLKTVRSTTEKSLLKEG

[2] = biological target: T1, Indoleamine 2,3-dioxygenase 1; experiment: Inhibition of IDO1 (unknown origin) assessed as reduction in kynurenine formation using L-tryptophan as substrate by methylene blue reagent based assay relative to control; design: concentration or dose not given beside the values; details: concentration not given here
Target sequence in this assay (P14902 whole entry, looked up): as the sequence (P14902 whole entry) above

[3] = biological target: T2, Indoleamine 2,3-dioxygenase 2 (Homo sapiens) (UniProt Q6ZQW0); experiment: Inhibition of IDO2 (unknown origin) assessed as reduction in kynurenine formation using L-tryptophan as substrate by methylene blue reagent based assay relative to control; design: concentration or dose not given beside the values; details: concentration not given here
T2 sequence (whole entry): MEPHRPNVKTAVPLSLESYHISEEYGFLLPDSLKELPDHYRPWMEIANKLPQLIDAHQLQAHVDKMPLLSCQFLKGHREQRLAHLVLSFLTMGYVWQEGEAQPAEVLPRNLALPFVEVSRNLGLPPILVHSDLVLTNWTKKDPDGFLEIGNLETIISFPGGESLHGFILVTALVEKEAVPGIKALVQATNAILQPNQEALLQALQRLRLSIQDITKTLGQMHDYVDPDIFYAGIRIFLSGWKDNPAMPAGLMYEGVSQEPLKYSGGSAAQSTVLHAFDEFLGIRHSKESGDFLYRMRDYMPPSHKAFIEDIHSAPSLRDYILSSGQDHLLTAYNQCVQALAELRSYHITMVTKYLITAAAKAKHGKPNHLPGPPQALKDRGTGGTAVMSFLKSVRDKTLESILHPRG

[4] = Protein binding in human plasma by equilibrium dialysis; assay type: ADME, cell-free; details: read-out: PPB (converted)
[5] = tested on: Rattus norvegicus; experiment: Toxicity in rat assessed as rat death at […]; assay type: organism-based; details: in vivo
[6] = Protein binding in ICR mouse plasma by equilibrium dialysis; assay type: ADME, cell-free; details: read-out: PPB (converted)
[7] = Efflux ratio of apparent permeability across basolateral to apical over apical to basolateral side in human Caco-2 cells; assay type: ADME, cell-based
[8] = Protein binding in human plasma assessed as fraction unbound by equilibrium dialysis; assay type: ADME, cell-free
[9] = Oral bioavailability in Sprague-Dawley rat at 50 mg/kg; assay type: ADME, organism-based; details: in vivo
[10] = Volume of distribution at steady state in Sprague-Dawley rat at 5 mg/kg, iv; assay type: ADME, organism-based; details: in vivo, read-out: Vdss
[11] = Half life in dog liver microsomes assessed as rate constant; assay type: ADME, Canis lupus familiaris, Microsome
[12] = Metabolic stability in mouse liver microsomes assessed as rate constant; assay type: ADME, Microsome
[13] = Toxicity in rat assessed as maximum tolerated dose; assay type: organism-based; details: in vivo
[14] = Clearance in mouse liver microsomes; assay type: ADME, Microsome; details: read-out: CLH
[15] = AUC (0 to infinity) in Sprague-Dawley rat at 5 mg/kg, iv; assay type: ADME, organism-based; design: time infinity, dose 5 mg/kg, route iv; details: in vivo
[16] = Protein binding in Beagle dog plasma assessed as fraction unbound by equilibrium dialysis; assay type: ADME, cell-free, Canis lupus familiaris
[17] = Protein binding in ICR mouse plasma assessed as fraction unbound by equilibrium dialysis; assay type: ADME, cell-free
[18] = Apparent permeability across apical to basolateral side in human Caco-2 cells assessed as drug recovery; assay type: ADME, cell-based; details: read-out: Drug recovery
[19] = Apparent permeability across basolateral to apical side in human Caco-2 cells assessed as drug recovery; assay type: ADME, cell-based; details: read-out: Drug recovery
[20] = Clearance in rat liver microsomes; assay type: ADME, Microsome; details: read-out: CLH
[21] = Protein binding in Sprague-Dawley rat plasma by equilibrium dialysis; assay type: ADME, cell-free; details: read-out: PPB (converted)
[22] = biological target: T3, Indoleamine 2,3-dioxygenase 2 (Homo sapiens, UniProt Q6ZQW0); experiment: Inhibition of IDO2 (unknown origin) assessed as reduction in kynurenine formation using L-tryptophan as substrate by methylene blue reagent based assay
T3 sequence (Q6ZQW0 whole entry): T2 sequence (whole entry)

[23] = Clearance in dog liver microsomes; assay type: ADME, Canis lupus familiaris, Microsome; details: read-out: CLH
[24] = Intrinsic clearance in monkey liver microsomes; assay type: ADME, Macaca mulatta, Microsome; details: rhesus monkey, read-out: CLH
[25] = tested on: Rattus norvegicus; experiment: Toxicity in rat assessed as weight loss at […]; assay type: organism-based; details: in vivo
[26] = tested on: Mus musculus; experiment: Toxicity in BALB/c mouse implanted with mouse CT26 cells assessed as adverse effect at 50 mg/kg, ip bid for 28 days; assay type: organism-based; details: in vivo, 672 h, time 28 day
[27] = Metabolic stability in monkey liver microsomes assessed as rate constant; assay type: ADME, Macaca mulatta, Microsome; details: rhesus monkey
[28] = AUC (0 to t) in Sprague-Dawley rat at 5 mg/kg, iv; assay type: ADME, organism-based; design: dose 5 mg/kg, route iv; details: in vivo
[29] = Tmax in Sprague-Dawley rat at 50 mg/kg, po; assay type: ADME, organism-based; details: in vivo
[30] = AUC (0 to infinity) in Sprague-Dawley rat at 50 mg/kg, po; assay type: ADME, organism-based; design: time infinity, dose 50 mg/kg, route po; details: in vivo
[31] = biological target: T1, Indoleamine 2,3-dioxygenase 1; experiment: Inhibition of IDO1 (unknown origin) assessed as reduction in kynurenine formation using L-tryptophan as substrate by methylene blue reagent based assay
Target sequence in this assay (P14902 whole entry): as the sequence (P14902 whole entry) above

[32] = tested on: HCT-116; experiment: Cytotoxicity against human HCT-116 cells assessed as reduction in cell viability by CCK8 assay; assay type: functional, cell-based
[33] = tested on: HT-29; experiment: Cytotoxicity against human HT-29 cells assessed as reduction in cell viability by CCK8 assay; assay type: functional, cell-based
[34] = AUC (0 to t) in Sprague-Dawley rat at 50 mg/kg, po; assay type: ADME, organism-based; design: dose 50 mg/kg, route po; details: in vivo
[35] = Protein binding in monkey plasma by equilibrium dialysis by equilibrium dialysis; assay type: ADME, cell-free, Macaca mulatta; details: rhesus monkey, read-out: PPB (converted)
[36] = Protein binding in Beagle dog plasma by equilibrium dialysis; assay type: ADME, cell-free, Canis lupus familiaris; details: read-out: PPB (converted)
[37] = Cmax in Sprague-Dawley rat at 50 mg/kg, po; assay type: ADME, organism-based; design: dose 50 mg/kg, route po; details: in vivo
[38] = tested on: PBMC; experiment: Inhibition of IDO1/IDO2 in IFNgamma/LPS-stimulated human PBMCs assessed as reduction in kynurenine formation at 0.0001 to 10 uM pretreated with compound for 15 mins followed by IFNgamma/LPS stimulation by LC-MS/MS analysis; assay type: tissue-based; details: dose 0.0001-10 µM
[39] = Half life in rat liver microsomes; assay type: ADME, Microsome
[40] = Metabolic stability in rat liver microsomes assessed as rate constant; assay type: ADME, Microsome
[41] = Half life in monkey liver microsomes; assay type: ADME, Macaca mulatta, Microsome; details: rhesus monkey
[42] = tested on: Mus musculus; experiment: Toxicity in BALB/c mouse implanted with mouse CT26 cells assessed as weight loss at 50 mg/kg, ip bid for 28 days; assay type: organism-based; details: in vivo, 672 h, time 28 day
[43] = tested on: HeLa; experiment: Cytotoxicity against human HeLa cells assessed as reduction in cell viability at 1 to 10 uM by CCK8 assay; assay type: functional, cell-based; details: dose 1-10 µM
[44] = Metabolic stability in dog liver microsomes assessed as rate constant; assay type: ADME, Canis lupus familiaris, Microsome
[45] = Apparent permeability across apical to basolateral side in human Caco-2 cells; assay type: ADME, cell-based
[46] = tested on: CT26; experiment: Cytotoxicity against mouse CT26 cells assessed as reduction in cell viability by CCK8 assay; assay type: functional, cell-based
[47] = Protein binding in monkey plasma assessed as fraction unbound by equilibrium dialysis; assay type: ADME, cell-free, Macaca mulatta; details: rhesus monkey
[48] = Half life in Sprague-Dawley rat at 50 mg/kg, po; assay type: ADME, organism-based; details: in vivo
[49] = Metabolic stability in human liver microsomes assessed as rate constant; assay type: ADME, Microsome
[50] = Protein binding in Sprague-Dawley rat plasma assessed as fraction unbound by equilibrium dialysis; assay type: ADME, cell-free
[51] = tested on: CT26; experiment: Antitumor activity against mouse CT26 cells implanted in BALB/c mouse assessed as tumor growth inhibition at 50 mg/kg, ip bid for 28 days by vernier caliper method relative to control; assay type: functional; details: CT26, 672 h, time 28 day, read-out: TGI
[52] = Half life in mouse liver microsomes; assay type: ADME, Microsome
[53] = biological target: Voltage-gated inwardly rectifying potassium channel KCNH2 (Homo sapiens, UniProt Q12809); experiment: Inhibition of human ERG
Chain of Voltage-gated inwardly rectifying potassium channel KCNH2 (Q12809 whole entry): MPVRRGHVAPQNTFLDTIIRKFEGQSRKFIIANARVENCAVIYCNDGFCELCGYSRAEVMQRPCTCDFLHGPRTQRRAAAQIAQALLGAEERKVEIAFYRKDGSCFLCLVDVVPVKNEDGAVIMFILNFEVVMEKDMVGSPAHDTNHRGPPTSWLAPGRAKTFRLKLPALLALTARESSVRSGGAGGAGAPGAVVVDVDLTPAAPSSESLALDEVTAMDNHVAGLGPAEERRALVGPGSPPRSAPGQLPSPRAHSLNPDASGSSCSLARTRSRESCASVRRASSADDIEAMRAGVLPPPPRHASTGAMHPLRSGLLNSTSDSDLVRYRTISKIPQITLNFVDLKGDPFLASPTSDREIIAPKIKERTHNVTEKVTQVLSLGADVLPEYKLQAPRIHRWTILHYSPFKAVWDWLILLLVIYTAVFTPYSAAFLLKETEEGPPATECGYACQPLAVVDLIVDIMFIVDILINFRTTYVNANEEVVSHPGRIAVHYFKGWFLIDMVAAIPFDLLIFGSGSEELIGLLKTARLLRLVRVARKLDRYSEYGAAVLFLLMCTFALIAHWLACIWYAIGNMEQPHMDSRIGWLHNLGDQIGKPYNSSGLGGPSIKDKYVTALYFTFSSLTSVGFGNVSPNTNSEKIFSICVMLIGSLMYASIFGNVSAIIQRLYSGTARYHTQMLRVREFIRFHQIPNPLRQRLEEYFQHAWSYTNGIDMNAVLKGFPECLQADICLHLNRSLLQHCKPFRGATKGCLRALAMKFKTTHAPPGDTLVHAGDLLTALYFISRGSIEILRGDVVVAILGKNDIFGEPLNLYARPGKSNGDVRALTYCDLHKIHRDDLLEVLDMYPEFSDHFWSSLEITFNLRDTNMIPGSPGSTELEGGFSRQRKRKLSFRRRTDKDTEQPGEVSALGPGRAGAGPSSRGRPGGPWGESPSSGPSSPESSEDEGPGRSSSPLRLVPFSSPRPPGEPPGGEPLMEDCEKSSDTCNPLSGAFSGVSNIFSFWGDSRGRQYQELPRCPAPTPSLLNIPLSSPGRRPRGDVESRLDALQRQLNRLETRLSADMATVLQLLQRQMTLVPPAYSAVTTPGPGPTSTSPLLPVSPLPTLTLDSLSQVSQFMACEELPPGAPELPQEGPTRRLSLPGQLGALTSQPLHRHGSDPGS

[54] = Half life in human liver microsomes; assay type: ADME, Microsome
[55] = Half life in Sprague-Dawley rat at 5 mg/kg, iv; assay type: ADME, organism-based; details: in vivo
[56] = Intrinsic clearance in human liver microsomes; assay type: ADME, Microsome; details: read-out: CLH
[57] = Apparent permeability across basolateral to apical side in human Caco-2 cells; assay type: ADME, cell-based

O/N=C(\Nc1ccc(F)c(Br)c1)c1nonc1NCCn1cc(-c2cccc(O)c2)nn1
IC50 [1]: 0.0136 µM | inhibition [2]: 38% | inhibition [3]: 13%

Nc1cccc(-c2cn(CCNc3nonc3/C(=N/O)Nc3ccc(F)c(Br)c3)nn2)c1
inhibition [2]: 7% | inhibition [3]: 12%

CC(O)c1cn(CCNc2nonc2/C(=N/O)Nc2ccc(F)c(Br)c2)nn1 (centres undefined)
fraction unbound [4]: 0.0192 | Activity [5]: Non-Toxic | fraction unbound [6]: 0.0584 | efflux ratio [7]: 5.9 | fraction unbound [8]: 0.0192 | bioavailability [9]: 20.4% | Vd [10]: 1.2 L/kg | half-life [11]: 5.31 min | K [12]: 0.0168 min⁻¹ | MTD [13]: 2 mg/kg | microsomal CLint [14]: 33.6 µL/min/mg | AUC [15]: 5670 ng·h/mL | fraction unbound [16]: 0.0239 | fraction unbound [17]: 0.0584 | recovery [18]: 95.5% | recovery [19]: 116% | microsomal CLint [20]: 64.2 µL/min/mg | fraction unbound [21]: 0.04 | IC50 [22]: 0.362 µM | microsomal CLint [23]: 261 µL/min/mg | microsomal CLint [24]: 20.2 µL/min/mg | Activity [25]: Non-Toxic | Activity [26]: Non-Toxic | k el [27]: 0.000168 s⁻¹ | AUC(0-t) [28]: 5590 ng·h/mL | Tmax [29]: 25.2 min | AUC(0-inf) [30]: 11500 ng·h/mL | IC50 [31]: 0.053 µM | IC50 [32]: 23.7 µM | IC50 [33]: 46 µM | AUC(0-t) [34]: 11300 ng·h/mL | fraction unbound [35]: 0.0371 | fraction unbound [36]: 0.0239 | Cmax [37]: 2730 ng/mL | inhibition [38]: Active | half-life [39]: 21.6 min | k el [40]: 0.00218 s⁻¹ | half-life [41]: 68.8 min | Activity [42]: Non-Toxic | Activity [43]: Active | k el [44]: 0.00218 s⁻¹ | Papp A→B [45]: 13.8 ×10⁻⁶ cm/s | IC50 [46]: 27.5 µM | fraction unbound [47]: 0.0371 | half-life [48]: 78 min | k el [49]: 4.35e-05 s⁻¹ | fraction unbound [50]: 0.044 | inhibition in vivo at 50 mg/kg [51]: 66.3% | half-life [52]: 41.2 min | IC50 [53]: > 30 µM | half-life [54]: 272 min | half-life [55]: 48 min | microsomal CLint [56]: 5.22 µL/min/mg | Papp B→A [57]: 80.9 ×10⁻⁶ cm/s
